The source of these data is publication PMC9204756 (2022).

Each structure is given as a SMILES string.

For assay [1], the system named is FMN riboswitch aptamer (FMN RNA) (RNA, riboswitch) GGGUGUAUCCUUCGGGGCAGGGUGGAAAUCCCGACCGGCGGUAGUAAAGCACAUUUGCUUUAGAGCCCGUGACCCGUGUGCAUAAGCACGCGGUGGAUUCAGUUUAAGCUGAAGCCGACAGUGAAAGUCUGGAUGGGAGAAGGAUGA
Put plainly: photoaffinity labeling, Cy5 click fluorescence. To be noted: covalent, 10 μM probe.

Assay [2] has the same test system. Put plainly: competitive photoaffinity labeling, PAGE. To be noted: displaces probe 1 (10 μM), UV cross-linked, fluorescein-azide click.
Assay [3] deals with FMN RT RNA (FMN riboswitch in structure cassette) (RNA, riboswitch) GGGCCUUCGGGCCAAUGUAUCCUUCGGGGCAGGGUGGAAAUCCCGACCGGCGGUAGUAAAGCACAUUUGCUUUAGAGCCCGUGACCCGUGUGCAUAAGCACGCGGUGGAUUCAGUUUAAGCUGAAGCCGACAGUGAAAGUCUGGAUGGGAGAAGGAUGAUCGAUCCGGUUCGCCGGAUCCAAAUCGGGCUUCGGUCCGGUUC
The assay can be described thus: SHAPE (NAI). To be noted: 15 mM MgCl2, 100 mM KCl; 50 mM HEPES pH 8.0, 37 °C; 100 μM compound.

Assay [4] relates to FMN riboswitch aptamer (FMN RNA) (RNA, riboswitch) GGGUGUAUCCUUCGGGGCAGGGUGGAAAUCCCGACCGGCGGUAGUAAAGCACAUUUGCUUUAGAGCCCGUGACCCGUGUGCAUAAGCACGCGGUGGAUUCAGUUUAAGCUGAAGCCGACAGUGAAAGUCUGGAUGGGAGAAGGAUGA
Put plainly: photoaffinity labeling, Cy5 click fluorescence and PAGE. To be noted: covalent; 10 μM probe; competed out by 10 μM FMN.

Assay [5] deals with FMN RT RNA (FMN riboswitch in structure cassette) (RNA, riboswitch) GGGCCUUCGGGCCAAUGUAUCCUUCGGGGCAGGGUGGAAAUCCCGACCGGCGGUAGUAAAGCACAUUUGCUUUAGAGCCCGUGACCCGUGUGCAUAAGCACGCGGUGGAUUCAGUUUAAGCUGAAGCCGACAGUGAAAGUCUGGAUGGGAGAAGGAUGAUCGAUCCGGUUCGCCGGAUCCAAAUCGGGCUUCGGUCCGGUUC
Put plainly: reverse transcription termination after photo-cross-linking. To be noted: covalent; folding buffer, 37 °C; 10 μM probe, 2 μM RNA; stops competed by FMN.

The test system of assay [6] is FMN riboswitch aptamer (FMN RNA) (RNA, riboswitch) GGGUGUAUCCUUCGGGGCAGGGUGGAAAUCCCGACCGGCGGUAGUAAAGCACAUUUGCUUUAGAGCCCGUGACCCGUGUGCAUAAGCACGCGGUGGAUUCAGUUUAAGCUGAAGCCGACAGUGAAAGUCUGGAUGGGAGAAGGAUGA
Put plainly: competitive photoaffinity labeling, microplate reader fluorescence. To be noted: displaces probe 1.

Regarding `C#CC[C@@H](C(=O)NCCc1ccc(N=[N+]=[N-])cc1)N(CCCC(=O)O)CCn1c2nc(=O)[nH]c(=O)c-2nc2cc(C)c(C)cc21`, the binding entry in assay [1] is recorded as “yes”. Consider `Cc1cc2nc3c(=O)[nH]c(=O)nc-3n(C[C@H](O)[C@H](O)[C@H](O)CO)c2cc1N(C)C`, for which the “apparent IC50” value in assay [2] was 7.0 ± 0.18 µM. On to `C#CC[C@@H](C(=O)NCCC1(C)N=N1)N(CCCC(=O)O)CCn1c2nc(=O)[nH]c(=O)c-2nc2cc(C)c(C)cc21`, for which the binding result in assay [3], in assay [4] and in assay [5] was “yes” each time. In the case of `Cc1cc2nc3c(=O)[nH]c(=O)nc-3n(C[C@H](O)[C@H](O)[C@H](O)COP(=O)(O)O)c2cc1C`, the binding result in assay [3] is on record as “yes”. Moreover, the “apparent IC50” value in assay [2] and in assay [6] was 0.4 ± 0.01 µM each time. For the compound `C#CC[C@@H](C(=O)NCCc1ccc(C(=O)c2ccccc2)cc1)N(CCCC(=O)O)CCn1c2nc(=O)[nH]c(=O)c-2nc2cc(C)c(C)cc21`, the binding result in assay [1] (low click efficiency not excluded) is recorded as “weak”.
